The source of these data is US12403121B2, “Anticancer rocaglamide derivatives” (priority 2018, dated 2025).

A short description of series [1]: Maximum tolerated dose of Roc in mice. It counts as in vivo. As to conditions: every other day.
The subject of series [2] is TC32 Ewing sarcoma, 143B osteosarcoma, and RD rhabdomyosarcoma cells. Nature of the series: Western blots of treated sarcoma cells. It counts as cell-based. Here is the method:
FIGS. 7A-7C provide images showing DDR and Roc reduce multiple signaling proteins important for the growth and survival of sarcoma cells. Lysates prepared from TC32 Ewing sarcoma (A), 143B osteosarcoma (B), and RD rhabdomyosarcoma (C) cells were treated 1 and 2 days with the indicated concentrations of DDR or Roc and analyzed by Western blotting for the expression of various oncogenic driver proteins. GAPDH was used as a loading control.
Subconfluent cells were treated with the indicated doses of Roc or DDR for 24-72 hours and then harvested in cell lysis buffer (Cell Signaling Technology) containing 1 mM phenylmethylsufonylfluoride and protease inhibitor cocktail (Sigma-Aldrich). The protein content in cleared lysates was quantitated using the microBCA assay (ThermoFisher). Equal amounts of protein were run in sodium dodecyl sulfate-polyacrylamide gels and electrotransferred onto Immobilon-FL PVDF membranes (Millipore). The antibodies used were directed against: MDR1/ABCB1 (#13978), insulin-like growth factor-1 receptor β subunit (IGF-1Rβ; #9750), AKT (#9272), ERK1/2 (#4695), glyceraldehyde-3-phosphate dehydrogenase (GAPDH; #5174), caspase-3 (#9662), caspase-7 (#9492), cleaved caspase-7 (#9491), poly(ADP-ribose) polymerase (PARP; #9532), cleaved PARP (#5625), and phospho-histone H2A.X (pH2A.X[Ser′^39]; #9718; all from Cell Signaling Technology), NKX2.2 (sc-514161), LSD1 (sc-136174), and survivin (sc-17779; Santa Cruz Biotechnology), and FLI1 (ab15289) and cleaved caspase-3 (CC3; ab32042; Abeam). Protein bands were detected using IRDye® infrared fluorescent dye-labeled secondary antibodies and scanning on an Odyssey CLx imaging system (LI-COR Biosciences) using the appropriate fluorescent channel at a resolution of 84 μm.
To further examine the molecular mechanisms underlying the antiproliferative effects of rocaglamides, the inventors treated TC32 Ewing sarcoma, 143B osteosarcoma, and RD rhabdomyosarcoma cells with 1- or 2-IC50 dose of DDR or rocaglamide for 1-2 days followed by Western blotting for several known drivers of cell survival and proliferation. […] They also observed reduction of the IGF-1Rβ levels in rocaglamide-treated MPNST cells. In addition, Roc and DDR decreased the levels of AKT, ERKs, cyclin D1 and survivin in treated TC32, 143B, and RD cells (FIG. 7). Intriguingly, the oncogenic fusion protein EWS-FLI1, which acts as an aberrant transcription factor in Ewing sarcoma, was not affected in Roc- and DDR-treated TC32 Ewing sarcoma cells (FIG. 7A). […] However, the expression of lysine demethylase 1 (LSD1), which modulates EWS-FLI1 transcriptional activity (Sankar et al., Oncogene, 32:5089-5100 (2013)), and NKX2.2, an EWS-FL11-regulated gene necessary for oncogenic transformation (Smith et al., Cancer Cell, 9:405-416 (2006)), were diminished by these rocaglamides in TC32 cells (FIG. 7A).

Structures are written as SMILES.

Regarding `COc1ccc([C@@]23Oc4cc(OC)cc(OC)c4[C@]2(O)[C@H](O)[C@H](C(=O)N(C)C)[C@H]3c2ccccc2)cc1` [Roc, rocaglamide], the “maximum tolerated dose (MTD)” value in series [1] (IP) stood at 4 mg/kg; in series [1] (oral gavage), 1.2 mg/kg. For the same compound, in series [2] (1- or 2-IC50 dose, 1-2 days, all three sarcoma cell lines), the “levels of the β subunit of IGF-1R” value is “reliably reduced”. Besides, the “levels of AKT, ERKs, cyclin D1 and survivin” value in series [2] (TC32, 143B, and RD cells, 1- or 2-IC50 dose, 1-2 days) was “decreased”. Further, the “EWS-FLI1 fusion protein level” value in series [2] (TC32 Ewing sarcoma cells) is listed as “not affected”. Also, the “expression of LSD1 and NKX2.2” value in series [2] (TC32 cells) is listed as “diminished”.
